Data from paper PMC9234961 (Journal of Medicinal Chemistry, 2022).
Like-named read-outs stand apart in the source and are kept apart here.

Legend:
[1] = molecular target: kinases (468) (Homo sapiens, UniProt O75460); conditions: ERN1; 1000 nM
[2] = molecular target: kinases (468) (Homo sapiens, UniProt O75582); conditions: compound concentration 1000 nM
[3] = molecular target: kinases (468) (Homo sapiens, UniProt O94768); conditions: DRAK2 (STK17B); 1000 nM
[4] = molecular target: kinases (468) (Homo sapiens, UniProt P00519); conditions: 1000 nM
[5] = molecular target: kinases (468) (Homo sapiens, UniProt P00519, H396P); conditions: 1000 nM
[6] = molecular target: kinases (468) (Homo sapiens, UniProt P00533); conditions: EGFR; 1000 nM
[7] = molecular target: kinases (468) (Homo sapiens, UniProt P00533, G719S); conditions: EGFR(G719S); 1000 nM
[8] = molecular target: kinases (468) (Homo sapiens, UniProt P00533, L858R); conditions: EGFR(L858R); 1000 nM
[9] = molecular target: kinases (468) (Homo sapiens, UniProt P07949, V804M); conditions: kinase RET(V804M) (Entrez RET); compound concentration 1000 nM
[10] = molecular target: kinases (468) (Homo sapiens, UniProt P10721, V559D); conditions: KIT(V559D); 1000 nM
[11] = molecular target: kinases (468) (Homo sapiens, UniProt P10721, V559D/V654A); conditions: KIT(V559D,V654A); 1000 nM
[12] = molecular target: kinases (468) (Homo sapiens, UniProt P23458); conditions: 1000 nM
Chain of kinases (468) (Homo sapiens, UniProt P23458) (P23458 whole entry): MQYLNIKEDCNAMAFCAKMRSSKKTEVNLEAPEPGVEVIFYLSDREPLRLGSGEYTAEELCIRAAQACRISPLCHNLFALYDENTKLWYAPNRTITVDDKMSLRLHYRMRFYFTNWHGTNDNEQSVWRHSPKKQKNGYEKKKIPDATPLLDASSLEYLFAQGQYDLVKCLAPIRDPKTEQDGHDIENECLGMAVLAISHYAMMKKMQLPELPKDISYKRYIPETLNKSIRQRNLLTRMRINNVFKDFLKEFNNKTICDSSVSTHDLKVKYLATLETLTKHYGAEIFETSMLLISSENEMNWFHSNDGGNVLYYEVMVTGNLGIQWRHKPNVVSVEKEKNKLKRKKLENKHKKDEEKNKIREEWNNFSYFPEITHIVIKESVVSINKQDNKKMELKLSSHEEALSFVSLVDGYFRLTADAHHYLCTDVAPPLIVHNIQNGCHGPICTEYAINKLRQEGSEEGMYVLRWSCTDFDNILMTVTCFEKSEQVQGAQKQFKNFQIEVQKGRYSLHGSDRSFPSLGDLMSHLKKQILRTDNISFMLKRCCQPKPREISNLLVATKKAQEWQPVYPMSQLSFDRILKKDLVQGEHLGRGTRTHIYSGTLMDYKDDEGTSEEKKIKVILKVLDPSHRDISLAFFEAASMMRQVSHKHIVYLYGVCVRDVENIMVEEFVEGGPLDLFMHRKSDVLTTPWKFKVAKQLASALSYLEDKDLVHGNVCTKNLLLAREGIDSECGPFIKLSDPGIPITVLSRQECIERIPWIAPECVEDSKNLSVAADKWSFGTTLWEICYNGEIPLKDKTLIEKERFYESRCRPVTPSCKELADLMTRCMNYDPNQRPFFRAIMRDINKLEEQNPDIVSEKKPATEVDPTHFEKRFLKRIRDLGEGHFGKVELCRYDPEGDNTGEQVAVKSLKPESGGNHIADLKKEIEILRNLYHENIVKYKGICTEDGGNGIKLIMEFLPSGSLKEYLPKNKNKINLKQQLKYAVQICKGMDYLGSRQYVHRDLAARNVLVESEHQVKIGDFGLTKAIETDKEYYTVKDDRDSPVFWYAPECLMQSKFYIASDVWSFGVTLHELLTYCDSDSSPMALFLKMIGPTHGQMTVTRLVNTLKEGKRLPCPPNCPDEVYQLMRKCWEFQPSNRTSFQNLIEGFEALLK

[13] = molecular target: kinases (468) (Homo sapiens, UniProt P36888); conditions: 1000 nM
Chain of kinases (468) (Homo sapiens, UniProt P36888) (P36888 27-993): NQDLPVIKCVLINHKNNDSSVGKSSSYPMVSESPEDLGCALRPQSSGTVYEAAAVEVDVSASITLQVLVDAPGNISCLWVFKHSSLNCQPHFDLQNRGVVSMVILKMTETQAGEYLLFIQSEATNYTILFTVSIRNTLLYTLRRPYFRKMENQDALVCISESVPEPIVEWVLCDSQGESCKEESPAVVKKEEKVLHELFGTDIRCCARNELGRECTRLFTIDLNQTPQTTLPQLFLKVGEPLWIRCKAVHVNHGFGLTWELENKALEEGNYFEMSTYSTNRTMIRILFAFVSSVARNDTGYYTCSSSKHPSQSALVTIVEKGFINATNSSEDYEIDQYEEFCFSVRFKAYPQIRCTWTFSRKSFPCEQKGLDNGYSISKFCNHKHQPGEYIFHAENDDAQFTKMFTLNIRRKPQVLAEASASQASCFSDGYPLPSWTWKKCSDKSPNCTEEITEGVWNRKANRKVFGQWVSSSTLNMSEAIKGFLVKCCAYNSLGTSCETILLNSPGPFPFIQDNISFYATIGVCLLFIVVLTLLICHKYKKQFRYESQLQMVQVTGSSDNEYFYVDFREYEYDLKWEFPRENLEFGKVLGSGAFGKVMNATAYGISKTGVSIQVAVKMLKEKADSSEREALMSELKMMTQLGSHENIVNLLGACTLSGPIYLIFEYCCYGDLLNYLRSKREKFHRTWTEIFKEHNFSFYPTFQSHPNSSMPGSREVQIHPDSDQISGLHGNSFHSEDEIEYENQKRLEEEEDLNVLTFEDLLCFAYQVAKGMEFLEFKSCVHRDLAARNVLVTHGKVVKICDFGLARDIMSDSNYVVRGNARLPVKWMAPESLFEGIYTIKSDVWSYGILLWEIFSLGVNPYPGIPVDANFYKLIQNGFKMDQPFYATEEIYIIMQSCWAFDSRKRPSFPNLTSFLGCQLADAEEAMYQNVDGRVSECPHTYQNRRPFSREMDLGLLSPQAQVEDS

[14] = molecular target: kinases (468) (Homo sapiens, UniProt P36894); conditions: BMPR1A; 1000 nM
[15] = molecular target: kinases (468) (Homo sapiens, UniProt P43403); conditions: kinase ZAP70 (Entrez ZAP70); compound concentration 1000 nM
[16] = molecular target: kinases (468) (Homo sapiens, UniProt P48729); conditions: CSNK1A1; 1000 nM
[17] = molecular target: kinases (468) (Homo sapiens, UniProt P49759); conditions: CLK1; 1000 nM
[18] = molecular target: kinases (468) (Homo sapiens, UniProt P78356); conditions: PIP5K2B (PIP4K2B); 1000 nM
[19] = molecular target: kinases (468) (Homo sapiens, UniProt Q00526); conditions: CDK3; 1000 nM
[20] = molecular target: kinases (468) (Homo sapiens, UniProt Q13705); conditions: ACVR2B; 1000 nM
[21] = molecular target: kinases (468) (Homo sapiens, UniProt Q14680); conditions: MELK; 1000 nM
Chain of kinases (468) (Homo sapiens, UniProt Q14680) (Q14680 whole entry): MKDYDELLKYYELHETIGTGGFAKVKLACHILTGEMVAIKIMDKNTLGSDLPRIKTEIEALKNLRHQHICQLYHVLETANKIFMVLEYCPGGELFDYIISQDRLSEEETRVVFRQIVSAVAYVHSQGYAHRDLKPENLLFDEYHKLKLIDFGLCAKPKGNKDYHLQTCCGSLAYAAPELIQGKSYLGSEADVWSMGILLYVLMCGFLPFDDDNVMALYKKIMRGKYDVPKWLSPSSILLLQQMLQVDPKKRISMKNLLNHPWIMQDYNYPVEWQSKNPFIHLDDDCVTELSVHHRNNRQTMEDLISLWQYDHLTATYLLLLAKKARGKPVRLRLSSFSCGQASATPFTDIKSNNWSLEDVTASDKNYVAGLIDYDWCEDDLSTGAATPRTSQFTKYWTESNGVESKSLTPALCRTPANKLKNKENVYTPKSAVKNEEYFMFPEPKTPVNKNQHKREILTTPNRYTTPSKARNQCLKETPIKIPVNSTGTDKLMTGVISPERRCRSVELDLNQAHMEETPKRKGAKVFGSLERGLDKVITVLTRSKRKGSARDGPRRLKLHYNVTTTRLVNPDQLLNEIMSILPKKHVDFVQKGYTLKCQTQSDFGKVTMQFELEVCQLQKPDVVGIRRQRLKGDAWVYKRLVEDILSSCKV

[22] = molecular target: kinases (468) (Homo sapiens, UniProt Q15831); conditions: LKB1 (STK11); 1000 nM
[23] = molecular target: kinases (468) (Homo sapiens, UniProt Q16566); conditions: CAMK4; 1000 nM
Chain of kinases (468) (Homo sapiens, UniProt Q16566) (Q16566 whole entry): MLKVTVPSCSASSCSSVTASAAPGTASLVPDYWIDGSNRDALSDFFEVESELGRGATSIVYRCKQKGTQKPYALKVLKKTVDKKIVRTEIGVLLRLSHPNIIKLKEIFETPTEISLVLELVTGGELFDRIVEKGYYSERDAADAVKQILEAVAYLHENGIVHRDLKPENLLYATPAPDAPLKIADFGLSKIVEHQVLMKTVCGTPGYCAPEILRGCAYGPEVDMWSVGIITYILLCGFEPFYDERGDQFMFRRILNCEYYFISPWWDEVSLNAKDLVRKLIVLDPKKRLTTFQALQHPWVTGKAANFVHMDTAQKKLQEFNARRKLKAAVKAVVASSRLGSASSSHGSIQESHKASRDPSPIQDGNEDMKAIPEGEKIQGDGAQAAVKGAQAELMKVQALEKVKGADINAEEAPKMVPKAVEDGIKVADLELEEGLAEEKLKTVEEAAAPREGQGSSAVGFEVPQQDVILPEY

[24] = molecular target: kinases (468) (Homo sapiens, UniProt Q2M2I8); conditions: AAK1; 1000 nM
[25] = molecular target: kinases (468) (Homo sapiens, UniProt Q32MK0); conditions: MLCK (MYLK3); 1000 nM
[26] = molecular target: kinases (468) (Homo sapiens, UniProt Q5S007); conditions: LRRK2; 1000 nM
[27] = molecular target: kinases (468) (Homo sapiens, UniProt Q6P2M8); conditions: CAMK1B (PNCK); 1000 nM
[28] = molecular target: kinases (468) (Homo sapiens, UniProt Q8NFD2); conditions: ANKK1; 1000 nM
[29] = molecular target: kinases (468) (Homo sapiens, UniProt Q9H0K1); conditions: kinase SIK2 (Entrez SIK2); compound concentration 1000 nM
[30] = molecular target: kinases (468) (Homo sapiens, UniProt Q9H4A3); conditions: kinase WNK1 (Entrez WNK1); compound concentration 1000 nM
[31] = molecular target: kinases (468) (Homo sapiens, UniProt Q9NQU5); conditions: PAK6; 1000 nM
[32] = molecular target: kinases (468) (Homo sapiens, UniProt Q9UK32); conditions: compound concentration 1000 nM
Chain of kinases (468) (Homo sapiens, UniProt Q9UK32) (Q9UK32 whole entry): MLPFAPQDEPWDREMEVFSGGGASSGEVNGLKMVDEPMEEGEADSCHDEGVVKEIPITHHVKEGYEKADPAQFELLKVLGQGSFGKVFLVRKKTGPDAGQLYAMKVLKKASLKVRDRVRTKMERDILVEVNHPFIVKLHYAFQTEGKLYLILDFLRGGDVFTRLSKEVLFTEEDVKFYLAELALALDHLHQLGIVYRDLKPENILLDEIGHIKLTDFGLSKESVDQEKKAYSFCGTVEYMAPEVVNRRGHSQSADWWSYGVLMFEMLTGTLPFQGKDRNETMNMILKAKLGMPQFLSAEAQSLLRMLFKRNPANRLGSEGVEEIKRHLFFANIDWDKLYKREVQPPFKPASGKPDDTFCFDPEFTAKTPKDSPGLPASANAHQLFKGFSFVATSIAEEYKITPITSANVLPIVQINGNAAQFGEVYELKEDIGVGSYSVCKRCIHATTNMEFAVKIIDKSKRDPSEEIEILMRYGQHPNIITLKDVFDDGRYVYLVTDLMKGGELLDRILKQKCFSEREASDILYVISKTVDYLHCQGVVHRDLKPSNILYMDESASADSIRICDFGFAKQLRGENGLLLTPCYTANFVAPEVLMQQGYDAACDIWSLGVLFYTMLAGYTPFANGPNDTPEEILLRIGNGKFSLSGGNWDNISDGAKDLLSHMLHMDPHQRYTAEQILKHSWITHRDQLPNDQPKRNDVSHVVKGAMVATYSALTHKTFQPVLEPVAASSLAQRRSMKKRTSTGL

[33] = molecular target: kinases (468) (Plasmodium falciparum, UniProt P61075); conditions: PFPK5(P.falciparum) (MAL13P1.279); 1000 nM

Chain of kinases (468) (Homo sapiens, UniProt O75582) (O75582 whole entry): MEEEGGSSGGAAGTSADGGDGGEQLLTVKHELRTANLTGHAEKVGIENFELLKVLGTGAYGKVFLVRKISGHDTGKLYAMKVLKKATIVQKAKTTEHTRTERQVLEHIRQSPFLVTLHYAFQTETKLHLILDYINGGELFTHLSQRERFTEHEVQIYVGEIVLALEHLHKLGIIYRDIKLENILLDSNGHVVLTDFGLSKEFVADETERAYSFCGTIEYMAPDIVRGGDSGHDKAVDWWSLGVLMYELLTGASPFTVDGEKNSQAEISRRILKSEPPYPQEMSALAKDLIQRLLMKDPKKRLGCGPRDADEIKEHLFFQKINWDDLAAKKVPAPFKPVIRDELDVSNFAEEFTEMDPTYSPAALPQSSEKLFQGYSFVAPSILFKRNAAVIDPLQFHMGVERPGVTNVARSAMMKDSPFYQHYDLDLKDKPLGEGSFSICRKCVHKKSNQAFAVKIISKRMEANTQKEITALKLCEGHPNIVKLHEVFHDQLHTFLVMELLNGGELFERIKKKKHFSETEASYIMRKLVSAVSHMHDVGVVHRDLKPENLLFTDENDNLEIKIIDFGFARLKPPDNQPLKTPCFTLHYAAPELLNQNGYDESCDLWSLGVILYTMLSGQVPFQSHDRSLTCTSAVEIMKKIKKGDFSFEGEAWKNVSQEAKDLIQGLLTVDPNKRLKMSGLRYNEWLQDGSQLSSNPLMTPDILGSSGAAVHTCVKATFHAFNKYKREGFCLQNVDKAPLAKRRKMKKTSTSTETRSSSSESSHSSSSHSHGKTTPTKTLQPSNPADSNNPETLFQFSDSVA

C[C@H]1C[C@@H](O)CN(c2ncc(Cl)c(Nc3ccc4c(c3)c3c(c(=O)n4C)OCC(F)(F)[C@H](C4CC4)N3)n2)C1 [CCT373566_9A]
Percent Control [1]: 92% | Percent Control ([2]; kinase RPS6KA5(Kin.Dom.1-N-terminal) (Entrez RPS6KA5)): 93% | Percent Control ([2]; kinase RPS6KA5(Kin.Dom.2-C-terminal) (Entrez RPS6KA5)): 96% | Percent Control [3]: 98% | Percent Control ([4]; ABL1-nonphosphorylated): 92% | Percent Control ([4]; ABL1-phosphorylated): 99% | Percent Control ([5]; ABL1(H396P)-nonphosphorylated): 83% | Percent Control ([5]; ABL1(H396P)-phosphorylated): 94% | Percent Control [6]: 100% | Percent Control [7]: 100% | Percent Control [8]: 100% | Percent Control [9]: 97% | Percent Control [10]: 100% | Percent Control [11]: 98% | Percent Control ([12]; JAK1(JH1domain-catalytic)): 100% | Percent Control ([12]; JAK1(JH2domain-pseudokinase)): 90% | Percent Control ([13]; FLT3-autoinhibited): 98% | Percent Control ([13]; FLT3): 99% | Percent Control [14]: 100% | Percent Control [15]: 100% | Percent Control [16]: 100% | Percent Control [17]: 94% | Percent Control [18]: 100% | Percent Control [19]: 100% | Percent Control [20]: 84% | Percent Control [21]: 100% | Percent Control [22]: 65% | Percent Control [23]: 100% | Percent Control [24]: 93% | Percent Control [25]: 100% | Percent Control [26]: 98% | Percent Control [27]: 69% | Percent Control [28]: 95% | Percent Control [29]: 98% | Percent Control [30]: 100% | Percent Control [31]: 93% | Percent Control ([32]; kinase RSK4(Kin.Dom.1-N-terminal) (Entrez RPS6KA6)): 90% | Percent Control ([32]; kinase RSK4(Kin.Dom.2-C-terminal) (Entrez RPS6KA6)): 88% | Percent Control [33]: 89%
